30 molecules from ChEMBL document CHEMBL1143644, “Synthesis and biological activities of novel aryl indole-2-carboxylic acid analogs as PPARgamma partial agonists” (Bioorg Med Chem Lett, 2005) can be followed below.

Molecules are shown by their SMILES.

The target in data set [1] is T1, Peroxisome proliferator-activated receptor alpha (Homo sapiens, UniProt Q07869).
T1 sequence (Q07869 whole entry): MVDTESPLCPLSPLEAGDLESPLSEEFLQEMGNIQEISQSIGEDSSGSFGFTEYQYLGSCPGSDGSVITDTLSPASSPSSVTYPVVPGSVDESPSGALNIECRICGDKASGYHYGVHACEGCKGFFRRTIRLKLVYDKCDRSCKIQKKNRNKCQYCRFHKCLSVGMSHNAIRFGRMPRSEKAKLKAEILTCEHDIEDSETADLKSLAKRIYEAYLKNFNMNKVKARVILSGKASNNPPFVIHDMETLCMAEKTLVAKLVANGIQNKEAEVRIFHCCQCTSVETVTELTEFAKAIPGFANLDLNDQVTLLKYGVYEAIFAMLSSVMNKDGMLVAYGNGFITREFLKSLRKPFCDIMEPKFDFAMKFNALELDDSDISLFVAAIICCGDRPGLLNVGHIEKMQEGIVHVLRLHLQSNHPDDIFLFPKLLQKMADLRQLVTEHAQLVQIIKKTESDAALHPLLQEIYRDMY
Nature of the data set: Inhibitory concentration against human peroxisome proliferator activated receptor alpha in SPA assay.

Data set [2] has as its target T2, Peroxisome proliferator-activated receptor gamma (Homo sapiens, UniProt P37231).
T2 sequence (P37231 whole entry): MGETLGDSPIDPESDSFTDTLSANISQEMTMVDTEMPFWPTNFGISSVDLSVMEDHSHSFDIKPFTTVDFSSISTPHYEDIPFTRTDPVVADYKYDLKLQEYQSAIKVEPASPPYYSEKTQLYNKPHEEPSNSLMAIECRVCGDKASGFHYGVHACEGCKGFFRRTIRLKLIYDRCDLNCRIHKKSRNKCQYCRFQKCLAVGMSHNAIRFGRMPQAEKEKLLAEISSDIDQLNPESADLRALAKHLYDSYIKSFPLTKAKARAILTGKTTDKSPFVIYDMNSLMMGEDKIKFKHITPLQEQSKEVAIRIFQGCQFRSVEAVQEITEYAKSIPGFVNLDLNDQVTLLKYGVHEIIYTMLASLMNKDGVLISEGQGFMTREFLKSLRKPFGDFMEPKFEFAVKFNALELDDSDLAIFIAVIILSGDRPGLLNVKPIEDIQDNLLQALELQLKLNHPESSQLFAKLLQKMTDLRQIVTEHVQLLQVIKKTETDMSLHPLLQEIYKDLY
Description: Inhibitory concentration against human peroxisome proliferator activated receptor gamma in SPA assay

For data set [3], the target named is T2, Peroxisome proliferator-activated receptor gamma. Description: Effective agonist concentration for human PPAR gamma Gal4 construct in transactivation assay. The class given is functional.
Data set [4] is described as follows: Area under curve at normal dose was determined. Format: ADME.
The nature of data set [5]: Half life at normal dose was determined. The class given is ADME.
A short description of data set [6]: Bioavailability. Format: ADME, organism-based. The following applies: eutheria, in vivo.

The IC50 is the point on the concentration scale where inhibition reaches its midpoint. Higher therefore signals weaker potency in that assay. As a reminder, the EC50 is the concentration needed to bring the measured effect to its halfway point. A high value points to lower potency in that assay. In the case of `CCOc1cccc(Oc2c(C(=O)O)n(-c3ccc(C(C)(C)C)cc3)c3ccccc23)c1`, the IC50 is over 50000 nM in data set [1] and 49 nM in data set [2]. This molecule also had an EC50 in data set [3] of 233 nM.
With `CC(C)(C)c1ccc(-n2c(C(=O)O)c(Oc3cccc(C(F)(F)F)c3)c3ccc(Cl)nc32)cc1`, the figures for the IC50 in data set [1] and in data set [2] were over 15000 nM and 21 nM, respectively. In data set [3], this molecule yielded an EC50 of 176 nM.
Turning to `CC(C)c1cccc(-n2c(C(=O)O)c(Oc3cccc(C(F)(F)F)c3)c3ccccc32)c1`, the IC50 in data set [1] was over 15000 nM; in data set [2], 60 nM.
`CC(C)(C)c1ccc(-n2c(C(=O)O)c(Oc3cccc(-c4cc(C(F)(F)F)c[nH]4)c3)c3ccc(Cl)nc32)cc1`: the IC50 in data set [1] was over 50000 nM; in data set [2], 58 nM. The same molecule showed a concentration giving a half-maximal response (EC50) in data set [3] of 95 nM.
As for `COc1cccc(Oc2c(C(=O)O)n(-c3ccc(C(C)(C)C)cc3)c3nc(Cl)ccc23)c1`, the values for the IC50 in data set [1] and in data set [2] were over 15000 nM and 104 nM, respectively. Further, the EC50 in data set [3] worked out at 755 nM.
`COc1ccc2c(c1)c(Oc1cccc(C(F)(F)F)c1)c(C(=O)O)n2-c1ccc(C(C)(C)C)cc1`: the concentration for half-maximal inhibition (IC50) was over 15000 nM in data set [1] and 39 nM in data set [2].
`CC(C)(C)c1ccc(-n2c(C(=O)O)c(Oc3ccc(Cl)cc3)c3ccc(OC(F)(F)F)cc32)cc1`: the half-maximal inhibitory concentration (IC50) in data set [1] is over 15000 nM; in data set [2] it was 298 nM. Also, in data set [3], the EC50 was found to be 411 nM.
In the case of `CC(C)(C)c1ccc(-n2c(C(=O)O)c(Oc3ccc(Cl)c(C(F)(F)F)c3)c3cc(Cl)ccc32)cc1`, the IC50 in data set [1] is 4480 nM; in data set [2], 13 nM.
As to `CC(C)c1cccc(Oc2c(C(=O)O)n(-c3ccc(C(C)(C)C)cc3)c3cc(Cl)ccc23)c1`, the 50% inhibitory concentration (IC50) is over 15000 nM in data set [1] and 19 nM in data set [2].
The matching figures for `O=C(O)c1c(Oc2cccc(C(F)(F)F)c2)c2ccccc2n1-c1ccc(C(F)(F)F)cc1`: 3200 nM and 107 nM.
Usually AUC stands for the area under the concentration-time curve, a measure of exposure. Low values mean less exposure, high ones more exposure. What is called half-life is the time in which the quantity being followed falls by half. A lower half-life goes with rapid decline. Turning to `CC(C)(C)c1ccc(-n2c(C(=O)O)c(Oc3cccc(C(F)(F)F)c3)c3ccccc32)cc1`, the IC50 in data set [1] was found to be 10600 nM; in data set [2], 12 nM. Moreover, in data set [4], the AUC amounted to 9.19 µM·h. In data set [5], this molecule showed a half-life of 30 min. In data set [3], this molecule displayed a concentration giving a half-maximal response (EC50) of 13 nM.
As a reminder, the bioavailability is the share of a dose that reaches the circulation, judged against a reference dose that is usually intravenous. Molecule `CC(C)(C)c1ccc(-n2c(C(=O)O)c(Oc3cccc(C(F)(F)F)c3)c3cc(Oc4cc(C(F)(F)F)ccn4)ccc32)cc1` returned a bioavailability in data set [6] of 2.4%. The molecule further showed a half-life in data set [5] of 48 min. Further, in data set [3], the EC50 amounted to 6 nM.
Turning to `CCOc1ccc2c(c1)c(Oc1cccc(C(F)(F)F)c1)c(C(=O)O)n2-c1ccc(C(C)(C)C)cc1`, the 50% inhibitory concentration (IC50) in data set [1] turned out to be 6270 nM; in data set [2] it was 18 nM. In data set [3], the half-maximal effective concentration (EC50) was 34 nM.
Consider `CC(C)(C)c1ccc(-n2c(C(=O)O)c(Oc3cc(C(F)(F)F)cc(C(F)(F)F)c3)c3cc(Cl)ccc32)cc1`, for which the IC50 is over 15000 nM in data set [1] and 83 nM in data set [2].
As to `COc1ccc(-n2c(C(=O)O)c(Oc3cccc(C(F)(F)F)c3)c3ccccc32)cc1`, the figures for the IC50 in data set [1] and in data set [2] were over 50000 nM and 115 nM, respectively. For the same molecule, in data set [3], the EC50 is 334 nM.
With `CC(C)c1cccc(-n2c(C(=O)O)c(Oc3ccc(C(F)(F)F)cc3)c3ccccc32)c1`, the 50% inhibitory concentration (IC50) in data set [1] was over 15000 nM; in data set [2], 120 nM.
Take `CC(C)c1cccc(-n2c(C(=O)O)c(Oc3cccc(O)c3)c3ccccc32)c1`: the half-inhibitory concentration (IC50) in data set [1] is over 50000 nM; in data set [2], 102 nM.
The corresponding values for `CC(C)(C)c1ccc(-n2c(C(=O)O)c(Oc3cccc(C(F)(F)F)c3)c3cc(O)ccc32)cc1` are over 50000 nM and 318 nM.
On to `CC(C)(C)c1ccc(-n2c(C(=O)O)c(Oc3ccc(OC(F)(F)F)cc3)c3ccccc32)cc1`, for which the figures for the IC50 in data set [1] and in data set [2] were 3580 nM and 49 nM, respectively.
As for `CC(C)(C)c1ccc(-n2c(C(=O)O)c(Oc3cccc(C(F)(F)F)c3)c3cc(Oc4cc(Cl)c[nH]4)ccc32)cc1`, the IC50 in data set [1] is over 15000 nM; in data set [2] it was 2 nM. The same molecule displayed a bioavailability in data set [6] of 9.8%. This molecule also registered an exposure (AUC) in data set [4] of 0.3 µM·h. The same molecule showed a half-life in data set [5] of 108 min. In data set [3], this molecule showed an EC50 of 2 nM.
In the case of `CC(C)(C)c1ccc(-n2c(C(=O)O)c(Oc3cccc(C(F)(F)F)c3)c3cc(Cl)ccc32)cc1`, the IC50 was over 15000 nM in data set [1] and 17 nM in data set [2]. The EC50 in data set [3] worked out at 136 nM.
Regarding `CC(C)(C)c1ccc(-n2c(C(=O)O)c(Oc3cccc(S(C)(=O)=O)c3)c3ccc(Cl)nc32)cc1`, the results for the IC50 in data set [1] and in data set [2] were over 50000 nM and 202 nM, respectively.
With `CC(C)(C)c1ccc(-n2c(C(=O)O)c(Oc3cccc(C(F)(F)F)c3)c3cccnc32)cc1`, the figures for the IC50 in data set [1] and in data set [2] were over 50000 nM and 75 nM, respectively. The same molecule returned a concentration giving a half-maximal response (EC50) in data set [3] of 464 nM.
`O=C(O)c1c(Sc2ccccc2)c2cc(Cl)ccc2n1Cc1ccc(Cl)cc1` had a half-inhibitory concentration (IC50) in data set [1] of over 15000 nM.
For the molecule `CC(C)(C)c1ccc(-n2c(C(=O)O)c(Oc3cccc(O)c3)c3ccccc32)cc1`, the figures for the IC50 in data set [1] and in data set [2] were over 50000 nM and 78 nM, respectively. The molecule also registered an EC50 in data set [3] of 161 nM.
Consider `CC(C)(C)c1ccc(-n2c(C(=O)O)c(Oc3cccc(C(F)(F)F)c3)c3ccc(Cl)cc32)cc1`, for which the IC50 in data set [1] was over 15000 nM; in data set [2], 27 nM. The molecule further had an EC50 in data set [3] of 106 nM.
The corresponding values for `CC(C)(C)c1ccc(-n2c(C(=O)O)c(Oc3ccc(-c4cc(C(F)(F)F)c[nH]4)cc3)c3cccnc32)cc1` are over 50000 nM, 251 nM and 34 nM.
On to `CC(C)(C)c1ccc(-n2c(C(=O)O)c(Oc3cccc(C(F)(F)F)c3)c3cc(Oc4ccccn4)ccc32)cc1`, for which the half-maximal effective concentration (EC50) in data set [3] stood at 126 nM.
With `CC(C)COc1ccc2c(c1)c(Oc1cccc(C(F)(F)F)c1)c(C(=O)O)n2-c1ccc(C(C)(C)C)cc1`, the results for the 50% inhibitory concentration (IC50) in data set [1] and in data set [2] were 4150 nM and 18 nM, respectively. Further, the concentration for a half-maximal effect (EC50) in data set [3] was found to be 91 nM.
Take `COc1ccc2c(Oc3cccc(C(F)(F)F)c3)c(C(=O)O)n(-c3ccc(C(C)(C)C)cc3)c2n1`: the IC50 was over 15000 nM in data set [1] and 100 nM in data set [2]. In data set [3], this molecule returned an EC50 of 299 nM.
